Data as given in PMC7114863 (Journal of Hepatology, 2009).

Assays:
[1] = tested on: 4′-Azidocytidine^res replicon; assay: Anti-HCV assay, 4′-azidocytidine resistant replicon; details: for EC50: Hepatitis C virus, read-out: EC50, 4′-Azidocytidine^res; for fold resistance, 4′-Azidocytidine^res: versus wild-type replicon
[2] = tested on: 2′-C-MeCyt^res replicon; assay: Anti-HCV assay, 2′-C-MeCyt resistant replicon; details: for EC50: Hepatitis C virus, read-out: EC50, 2′-C-MeCyt^res; for fold resistance, 2′-C-MeCyt^res: versus wild-type replicon
[3] = tested on: HuH6 replicons; assay: Anti-HCV replicon assay in HuH6 cells; details: Hepatitis C virus, HuH-6, read-out: Anti-HCV activity EC50, HuH6
[4] = Cytostatic assay; assay type: cell-based; details: human, HCV replicon-containing cells (Huh 5-2, HuH6 or Huh 9-13)
[5] = tested on: GSK-4^res replicon; assay: Anti-HCV assay, GSK-4 resistant replicon; details: for EC50: Hepatitis C virus, read-out: EC50, GSK-4^res; for fold resistance, GSK-4^res: versus wild-type replicon
[6] = tested on: J6/JFH chimeric HCV reporter virus (J6/JFH-Rluc2a-FLAG); assay: Antiviral assay with HCVcc virus in Huh-Lunet cells; assay type: cell-based, HCV genotype 2a; details: for EC50: Hepatitis C virus, 72 h, read-out: Anti-HCV activity EC50, J6/JFH
[7] = tested on: HCV; details: cited from earlier work
[8] = tested on: HIV-1 (IIIB); assay: Antiviral assay, HIV-1; assay type: cell-based; details: data not shown
[9] = tested on: sindbis virus (alphaviridae); assay: Antiviral assay, sindbis virus; assay type: cell-based; details: data not shown
[10] = tested on: HuH6 replicon-containing cells; assay: Drug combinations in HuH6 cells; assay type: cell-based, HCV; details: checkerboard
[11] = NADPH-dependent metabolic stability in human hepatic microsomes; assay type: in vitro ADME
[12] = tested on: vaccinia virus (poxviridae); assay: Antiviral assay, vaccinia virus; assay type: cell-based; details: data not shown
[13] = tested on: Punta Toro virus (bunyaviridae); assay: Antiviral assay, Punta Toro virus; assay type: cell-based; details: data not shown
[14] = tested on: VX-950^res and BILN-2061^res replicon; assay: Anti-HCV assay, VX-950 and BILN-2061 double resistant replicon; details: for fold resistance, VX-950^res and BILN-2061^res: versus wild-type replicon; for EC50: Hepatitis C virus, read-out: EC50, VX-950^res and BILN-2061^res
[15] = tested on: HCV replicon in Huh 9-13 cells; assay: HCV replicon clearance-rebound assay; assay type: cell-based; details: for clearance of replicon, drug alone: 20 × EC50, Huh 9-13; for drug resistant replicon in cells surviving rebound conditions: after treatment, addition of G418, data not shown; for clearance of Huh 9-13 cells from their replicon, drug alone: five times EC50, 3 passages
[16] = tested on: BILN-2061^res replicon; assay: Anti-HCV assay, BILN-2061 resistant replicon; details: for EC50: Hepatitis C virus, read-out: EC50, BILN-2061^res; for fold resistance, BILN-2061^res: versus wild-type replicon
[17] = Stability in basic and acidic solutions; assay type: physicochemical
[18] = NADPH-dependent metabolic stability in dog hepatic microsomes; assay type: in vitro ADME
[19] = tested on: bovine viral diarrhea virus (BVDV, flaviviridae); assay: Antiviral assay with BVDV; assay type: cell-based
[20] = tested on: respiratory syncytial virus (paramyxoviridae); assay: Antiviral assay, respiratory syncytial virus; assay type: cell-based; details: data not shown
[21] = tested on: influenza B virus (orthomyxoviridae); assay: Antiviral assay, influenza B virus; assay type: cell-based; details: data not shown
[22] = tested on: herpes simplex virus-1 (KOS strain, TK^− KOS ACV^r); assay: Antiviral assay, herpes simplex virus-1; assay type: cell-based; details: data not shown
[23] = tested on: para-influenza-3 virus (paramyxoviridae); assay: Antiviral assay, para-influenza virus; assay type: cell-based; details: data not shown
[24] = tested on: vesicular stomatitis virus (rhabdoviridae); assay type: cell-based
[25] = tested on: herpes simplex virus-2 (G strain, herpesviridae); assay: Antiviral assay, herpes simplex virus-2; assay type: cell-based; details: data not shown
[26] = tested on: HCV subgenomic 1b replicon; assay: Anti-HCV subgenomic replicon assay; assay type: cell-based
[27] = tested on: HIV-2 (ROD, retroviridae); assay: Antiviral assay, HIV-2; assay type: cell-based; details: data not shown
[28] = tested on: YFV-17D (flaviviridae); assay type: cell-based, yellow fever virus
[29] = tested on: influenza A virus (H1N1 and H3N2); assay: Antiviral assay, influenza A virus; assay type: cell-based; details: data not shown
[30] = tested on: reovirus-1 (reoviridae); assay: Antiviral assay, reovirus; assay type: cell-based; details: data not shown
[31] = NADPH-dependent metabolic stability in rat hepatic microsomes; assay type: in vitro ADME
[32] = tested on: feline coronavirus (coronaviridae); assay: Antiviral assay, feline coronavirus; assay type: cell-based; details: data not shown
[33] = tested on: coxsackie virus B4 (picornaviridae); assay: Antiviral assay, coxsackie virus; assay type: cell-based; details: data not shown
[34] = 300 nM, Huh 9-13, data not shown

[N-]=[N+]=N[C@]1(CO)O[C@@H](n2ccc(N)nc2=O)[C@H](O)[C@@H]1O [4′-Azidocytidine, 4′-azidocytidine]
EC50 [1]: ≥ 16000 nM
fold resistance, 4′-Azidocytidine^res [1]: (⩾5.5)
EC50 [2]: 1200 ± 430 nM
fold resistance, 2′-C-MeCyt^res [2]: (0.41)
EC50 [3]: 7400 ± 3700 nM
CC50 [4]: > 33 µM

CNC(=O)c1c(-c2ccc(F)cc2)oc2cc(N(CCO)S(C)(=O)=O)c(C3CC3)cc12 [HCV-796]
EC50 [5]: 60 ± 30 nM
fold resistance, GSK-4^res [5]: (0.75)
EC50 [6]: < 100 nM
EC50 [3]: 10 ± 3 nM
CC50 [4]: > 33 µM

CC(C)(C)NC(=O)N[C@H](C(=O)N1C[C@H]2[C@@H]([C@H]1C(=O)NC(CC1CCC1)C(=O)C(N)=O)C2(C)C)C(C)(C)C (stereo partly drawn) [SCH 503034, (1R,5S)-N-[3-amino-1-(cyclobutylmethyl)-2,3-dioxopropyl]-3-[2(S)-[[[(1,1-dimethylethyl)amino]carbonyl]amino]-3,3-dimethyl-1-oxobutyl]-6,6-dimethyl-3-azabicyclo[3.1.0]hexan-2(S)-carboxamide]
EC50 [6]: 340 nM
CC50 [4]: ≥ 7.4 µM

CC1CCC(C(=O)N(c2cc(-c3ccccc3)sc2C(=O)O)C2CCC(O)CC2)CC1 (centres unmarked) [VCH-759]
tolerability in early clinical studies ([7]; HCV-infected patients): generally well-tolerated
decrease in HCV RNA ([7]; after 10 days of treatment in HCV-infected patients): 2.5 log10

Fc1cccc(-c2nc3ccn(Cc4cc(-c5ccc(Cl)cc5)no4)cc-3n2)c1F [GS-327073, 5-[[3-(4-chlorophenyl)-5-isoxazolyl]methyl]-2-(2,3-difluorophenyl)-5H-imidazo[4,5-c]pyridine]
activity against 4′-azidocytidine resistant replicons [1]: retained wild-type activity
EC50 [1]: 7.2 ± 0.8 nM
fold resistance, 4′-Azidocytidine^res [1]: (3.6)
activity against GSK-4 resistant replicons [5]: retained wild-type activity
EC50 [5]: 11 ± 1 nM
fold resistance, GSK-4^res [5]: (5.5)
activity against human immunodeficiency virus 1 [8]: inactive
activity against sindbis virus [9]: inactive
combined antiviral activity with 2′-C-MeCyt [10]: additive antiviral activity
combined antiviral activity with IFNα 2b [10]: additive antiviral activity
combined antiviral activity with VX-950 [10]: additive antiviral activity
combined antiviral activity with low concentrations of IFNα 2b [10]: slight synergistic effect
combined antiviral activity with ribavirin [10]: additive antiviral activity
microsomal half-time ([11]; human hepatic microsomes, NADPH-dependent): 236 min
predicted hepatic clearance ([11]; human microsomes): 0.15 L/h/kg
activity against vaccinia virus [12]: inactive
activity against Punta Toro virus [13]: inactive
activity against BILN-2061/VX-950 double resistant replicons [14]: retained wild-type activity
fate of cells containing VX-950/BILN-2061^res replicon under G418 pressure [14, 34]: died following only one passage
fold resistance, VX-950^res and BILN-2061^res [14]: (2.0)
clearance of replicon, drug alone [15]: failed to achieve clearance
clearance of replicon, combination GS-327073 (5 × EC50) and VX-950 (5 × EC50) ([15]; Huh 9-13): clearance of Huh 9-13 cells from their replicon following one passage
passages until clearance of replicon RNA, GS-327073 (20 × EC50) with 2′-C-MeCyt (20 × EC50) ([15]; Huh 9-13): 2 passages
drug resistant replicon in cells surviving rebound conditions [15]: did not contain drug resistant replicon
clearance of Huh 9-13 cells from their replicon, drug alone [15]: did not achieve complete clearance
activity against 2′-C-MeCyt resistant replicons [2]: retained wild-type activity
fate of cells containing 2′-C-MeCyt^res replicon under G418 pressure [2, 34]: died following only one passage
EC50 [2]: 8 ± 6 nM
fold resistance, 2′-C-MeCyt^res [2]: (4.0)
activity against BILN-2061 resistant replicons [16]: retained wild-type activity
EC50 [16]: 9 ± 5 nM
fold resistance, BILN-2061^res [16]: (4.5)
stability in acidic solution ([17]; pH 2.2): remained stable
stability in basic solution ([17]; pH 7.3): remained stable
microsomal half-time ([18]; dog hepatic microsomes, NADPH-dependent): 88 min
predicted hepatic clearance ([18]; dog microsomes): 0.36 L/h/kg
cross-resistance with BPIP in anti-BVDV assay [19]: cross-resistant
fold less potent against BVDV than compound 1 ([19]; compared to compound 1): about 10 fold
activity against respiratory syncitial virus [20]: inactive
activity against influenza virus B [21]: inactive
activity against herpes simplex virus 1 [22]: inactive
activity against para-influenza virus [23]: inactive
EC50 [6]: 330 ± 140 nM
fold higher EC50 for HCV genotype 2a virus than for 1b replicon ([6]; versus 1b replicon): 100 fold
activity against vesicular stomatitis virus [24]: inactive
EC50 [3]: 50 ± 20 nM
activity against herpes simplex virus 2 [25]: inactive
selectivity indices ([26]; CC50/EC50): ≥ 340
EC50 ([26]; Hepatitis C virus, GETYPE1, read-out: mean EC50 values, HCV (genotype 1) subgenomic replicon replication): 2 to 50 nM
activity against human immunodeficiency virus 2 [27]: inactive
activity against yellow fever virus (17D) [28]: inactive
activity against influenza virus A [29]: inactive
activity against reovirus [30]: inactive
CC50 [4]: ≥ 17 µM
microsomal half-time ([31]; rat hepatic microsomes, NADPH-dependent): 96 min
predicted hepatic clearance ([31]; rat microsomes): 0.63 L/h/kg
activity against feline coronavirus [32]: inactive
activity against coxsackie virus [33]: inactive

NC(=O)c1ncn([C@@H]2O[C@H](CO)[C@@H](O)[C@H]2O)n1 [Ribavirin]
EC50 [3]: 28000 ± 16000 nM
CC50 [4]: > 33 µM

C[C@@]1(O)[C@H](O)[C@@H](CO)O[C@H]1n1ccc(N)nc1=O [2′-C-MeCyt, 2′-C-Methylcytidine]
EC50 [1]: 3400 ± 1100 nM
fold resistance, 4′-Azidocytidine^res [1]: (7.9)
EC50 [14]: 1000 ± 700 nM
fold resistance, VX-950^res and BILN-2061^res [14]: (2.3)
clearance of replicon, drug alone [15]: failed to achieve clearance
drug resistant replicon in cells surviving rebound conditions [15]: did not contain drug resistant replicon
EC50 [2]: ≥ 30000 nM
fold resistance, 2′-C-MeCyt^res [2]: ⩾81
EC50 [16]: 910 ± 1100 nM
fold resistance, BILN-2061^res [16]: (2.1)
EC50 [6]: 100 ± 20 nM
EC50 [3]: 1020 ± 440 nM
CC50 [4]: ≥ 26 µM

CCC[C@H](NC(=O)[C@@H]1[C@H]2CCC[C@H]2CN1C(=O)[C@@H](NC(=O)[C@@H](NC(=O)c1cnccn1)C1CCCCC1)C(C)(C)C)C(=O)C(=O)NC1CC1 [VX-950]
EC50 [1]: 690 ± 150 nM
fold resistance, 4′-Azidocytidine^res [1]: (1.2)
EC50 [14]: 14000 ± 1400 nM
fold resistance, VX-950^res and BILN-2061^res [14]: (24)
clearance of Huh 9-13 cells from their replicon, drug alone [15]: did not achieve complete clearance
EC50 [2]: 1000 ± 30 nM
fold resistance, 2′-C-MeCyt^res [2]: (1.7)
EC50 [16]: 310 ± 50 nM
fold resistance, BILN-2061^res [16]: (0.53)
EC50 [6]: 290 ± 110 nM
EC50 [3]: 1400 ± 490 nM
CC50 [4]: ≥ 24 µM

COc1ccc2c(O[C@@H]3C[C@H]4C(=O)N[C@]5(C(=O)O)C[C@H]5/C=C\CCCCC[C@H](NC(=O)OC5CCCC5)C(=O)N4C3)cc(-c3csc(NC(C)C)n3)nc2c1 [BILN-2061]
EC50 [1]: 14 ± 8 nM
fold resistance, 4′-Azidocytidine^res [1]: (0.93)
EC50 [14]: 800 ± 80 nM
fold resistance, VX-950^res and BILN-2061^res [14]: (80)
EC50 [2]: 40 ± 30 nM
fold resistance, 2′-C-MeCyt^res [2]: (4.0)
EC50 [16]: 1300 ± 470 nM
fold resistance, BILN-2061^res [16]: (130)
EC50 [3]: 4 ± 2 nM
CC50 [4]: ≥ 22 µM
